How the values were obtained:
Type in all cases: cell-based
[1] = tested on: microtubule cytoskeleton of human CG neuroblastoma cells; test: Antimicrotubule activity, tubulin immunofluorescence microscopy; details: 2 hr at 37° C., read-out: Concentration where microtubule destabilization occurs
Candida albicans SRI 523 = test: Agar disc diffusion assay; details: 240 ug/disc, about 24 hr at 37° C.
Method: (§1) The activity of the compounds is determined using the following assay. The compound is dissolved in DMSO at a concentration of 6 mg/ml and then diluted with water to a final concentration of 3 mg/ml in 50% DMSO (% DMSO was shown not to be inhibitory to the test organisms). An aliquot (0.08 ml) of each drug solution was transferred to filter paper discs (12.7 mm diameter, Scmeicherand Schuell) for use in the agar diffusion assay. The concentration of each drug on the filter paper disc was 240 ug/disc. The test organisms included the following: Gram-positive aerobes (Staphylococcus aureus SRI 1323, Streptococcus pneumoniae SRI 1167); Gram-negative aerobe (Proteus vulgaris SRI 180); and the yeast Candida albicans SRI 523. An agar disc diffusion assay was used to evaluate the antimicrobial activity of the test compounds. Briefly, cultures were prepared from 16-20 hr agar slant cultures by inoculating in physiological saline to a turbidity equivalent to a #0.5 McFarland turbidity standard for the bacteria and a #3 McFarland standard for C. albicans. The surface of Mueller-Hinton agar (15×100 mm plates, mm) were evenly inoculated with each standardized culture using a cotton swab. Filter paper discs containing the drug concentration listed above were then placed on the inoculated agar plates along with a disc containing the solvent used to dissolve each drug. The plates were incubated at 37° C. for about 24 hr and the diameters of the zones of inhibition measured with a vernier caliper. Positive control drugs consisted of streptomycin for use with the bacterial strains and 5-fluorocytosine for use with C. albicans. The positive control drugs were assayed as described above for the compounds of the present invention using the same concentration.

[2] = tested on: Streptococcus pneumoniae SRI 1167; test: Agar disc diffusion assay; details: 240 ug/disc, about 24 hr at 37° C.; + = zone too large to measure
Method: as §1

[3] = tested on: Staphylococcus aureus SRI 1323; test: Agar disc diffusion assay; details: 240 ug/disc, about 24 hr at 37° C.
Method: as §1

Proteus vulgaris SRI 180 = test: Agar disc diffusion assay; details: 240 ug/disc, about 24 hr at 37° C.; 0 = no measurable zone
Method: as §1

Compound: Cl.Cl.O=C(CCN1CCN(Cc2ccccc2)CC1)c1ccc(F)c2ccccc12 [Example 21, 1-(4″-Fluoronaphth-1″-yl)-3-(4′-benzyl-1′-piperazinyl)-1-propanone dihydrochloride]
- minimal effective concentration [1]: 20 µM
- Diameter of the zone of inhibition, C. albicans (Candida albicans SRI 523): 26.6 mm
- Diameter of the zone of inhibition, S. pneumoniae [2]: 40.7 mm
- Diameter of the zone of inhibition, S. aureus [3]: 33.8 mm
- Diameter of the zone of inhibition, P. vulgaris (Proteus vulgaris SRI 180): 0^1 mm
